According to US8101766B2, “Crystalline form of a biphenyl compound” (Theravance, Inc., priority 2004, dated 2012):

Molecular target: T1, hM1 receptor (Homo sapiens, UniProt P11229)
T1 construct: expressed in transfected cells
T1 sequence (P11229 1-460): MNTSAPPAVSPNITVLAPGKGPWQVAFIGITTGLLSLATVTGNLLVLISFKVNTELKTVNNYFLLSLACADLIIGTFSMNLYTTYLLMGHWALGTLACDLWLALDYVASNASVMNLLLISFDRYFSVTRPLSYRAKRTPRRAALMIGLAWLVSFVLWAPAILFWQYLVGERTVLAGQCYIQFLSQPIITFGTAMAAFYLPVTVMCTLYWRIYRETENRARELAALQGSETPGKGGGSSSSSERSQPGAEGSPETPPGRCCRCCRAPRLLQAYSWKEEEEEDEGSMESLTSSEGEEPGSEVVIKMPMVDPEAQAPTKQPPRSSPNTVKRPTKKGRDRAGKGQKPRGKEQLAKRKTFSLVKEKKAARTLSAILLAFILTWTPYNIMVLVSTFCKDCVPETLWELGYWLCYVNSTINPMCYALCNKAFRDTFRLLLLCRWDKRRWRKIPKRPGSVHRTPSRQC
Experiment: Blockade of agonist-mediated calcium release via FLIPR assay (hM1)
Type: cell-based
Conditions: CHO cells stably expressing hM1
Text: B. Blockade of Agonist-Mediated Calcium Release Via FLIPR Assays
Muscarinic receptor subtypes (M1, M3 and M5 receptors), which couple to Gq proteins, activate the phospholipase C (PLC) pathway upon agonist binding to the receptor. As a result, activated PLC hydrolyzes phosphatyl inositol diphosphate (PIP2) to diacylglycerol (DAG) and phosphatidyl-1,4,5-triphosphate (IP3), which in turn generates calcium release from intracellular stores, i.e., endoplasmic and sarcoplasmic reticulum. […] This fluorescence event is measured in real time by the FLIPR, which detects the change in fluorescence from a monolayer of cells cloned with human M1 and M3, and chimpanzee M5 receptors. Antagonist potency can be determined by the ability of antagonists to inhibit agonist-mediated increases in intracellular calcium. […]
To determine antagonist potency, the dose-dependent stimulation of intracellular Ca^2+ release for oxotremorine was first determined so that antagonist potency can later be measured against oxotremorine stimulation at an EC90 concentration. […]
The parameters used for the FLIPR were: exposure length of 0.4 seconds, laser strength of 0.5 watts, excitation wavelength of 488 nm, and emission wavelength of 550 nm. Baseline was determined by measuring the change in fluorescence for 10 seconds prior to addition of agonist. […]

COc1cc(NC(=O)CCN2CCC(OC(=O)Nc3ccccc3-c3ccccc3)CC2)c(Cl)cc1CNC[C@H](O)c1ccc(O)c2[nH]c(=O)ccc12 [compound of formula I, biphenyl-2-ylcarbamic acid 1-[2-(2-chloro-4-{[(R)-2-hydroxy-2-(8-hydroxy-2-oxo-1,2-dihydroquinolin-5-yl)ethylamino]methyl}-5-methoxyphenylcarbamoyl)ethyl]piperidin-4-yl ester]
Ki: < 10 nM
